Laboratory results taken from BindingDB's records for doi:10.1002/cbic.201200316 (Moffitt Cancer Center, 2012).

Target: Cyclin-dependent kinase 2 (Homo sapiens, UniProt P24941)
Assay: Inhibition Assay
Method: The inhibitory against activated CDK2-cyclin A2 complex was determined by using the ADP Quest fluorescence assay from (DiscoveRX, Fremont, CA)

Row | IC50 [µM] | Compound
1 | > 150 | Cc1ccc(N=Nc2c(O)ccc3nn[nH]c23)cc1
2 | 46 | O=C1c2ccccc2C(=O)C1c1ccccn1
3 | > 150 | Nc1ccc2c(c1Cl)C(=O)c1ccc(N)c(Cl)c1C2=O [2,6-bis(azanyl)-1,5-bis(chloranyl)anthracene-9,10-dione]
4 | > 150 | O=c1cc(-c2ccc(O)cc2)oc2c(O)c(O)c(O)c(O)c12 [2-(4-hydroxyphenyl)-5,6,7,8-tetrakis(oxidanyl)chromen-4-one]
5 | > 150 | Oc1ccc(/N=C/c2c(O)ccc3ccccc23)cc1 [Hit compound, 3]
6 | 45 | O=c1[nH]c(O)ccc1N=Nc1ccc(S(=O)(=O)O)cc1 [Hit compound, 4]
7 | 53 | COCc1cc(/N=N/c2cccc(S(N)(=O)=O)c2)c2ccccc2c1N [Hit compound, 5]
8 | > 150 | Cc1ccc(/N=N/c2ccc(N)cc2C)c(S(N)(=O)=O)c1 [Hit compound, 7]
9 | > 150 | Nc1cc([N+](=O)[O-])ccc1Nc1ccc(O)cc1 [Hit compound, 12]
